The values below are quoted from earlier work in US20210275440A1, “MICROBEAD COMPOSITIONS AND METHODS FOR DELIVERING AN AGENT” (THE UNIVERSITY OF MEMPHIS RESEARCH FOUNDATION, priority 2016, published 2021).

Structures are written as SMILES.

For the data set the following is noted: intra-articular administration.

Broadly, the half-life is the time needed for the level to fall by half in the phase considered. In the case of `CN[C@H](CC(C)C)C(=O)N[C@H]1C(=O)N[C@@H](CC(N)=O)C(=O)N[C@H]2C(=O)N[C@H]3C(=O)N[C@H](C(=O)N[C@H](C(=O)O)c4cc(O)cc(O)c4-c4cc3ccc4O)[C@H](O)c3ccc(c(Cl)c3)Oc3cc2cc(c3O[C@@H]2O[C@H](CO)[C@@H](O)[C@H](O)[C@H]2O[C@H]2C[C@](C)(N)[C@H](O)[C@H](C)O2)Oc2ccc(cc2Cl)[C@H]1O` (atropisomer, axis not shown) [vancomycin], the half-life is on record as 3 h; the “time therapeutic levels in joint and serum were maintained” value is reported as 24 h.
